Laboratory results: US20230159889A1, “USE OF N-BUTYLIDENEPHTHALIDE IN DOPAMINERGIC PROGENITOR CELL TRANSPLANTATION” (GWO XI STEM CELL APPLIED TECHNOLOGY CO., LTD., priority 2018, published 2023)

What was measured:
[1] = system: dopaminergic neurons; experiment: Influence of BP on migration of dopaminergic neurons out from neurospheres (Sox-1/TH/DAPI fluorescent staining); format: cell-based; details: FIG. 4
Protocol: (§1) The dopaminergic progenitor cells provided by [Preparation Example B-2] were cultured in the conditional medium provided by [Preparation Example A-2] at 37° C., 5% CO2 for 24 hours. Then, the cells were divided into six groups (see FIGS. 3 and 4), three groups (see FIGS. 5 and 6) and independently subjected to the following treatments: • (1) Control group: cells were continuously cultured in the conditional medium provided by [Preparation Example A-2] […]
To understand the influence of BP on dopaminergic neurons, when the cells in each group provided by [Preparation Example C] were continuously cultured for ten days, the cells were fixed and then subjected to fluorescent staining with the antibodies including Sox-1 (purchased from Santa Cruz company, product number: SC-17318), TH (tyrosine hydroxylase; purchased from Millipore company, product number: MAB152) and DAPI (diamidino-2-phenylindole; purchased from ThermoFisher Scientific company, product number: D1306), respectively (Sox-1 expresses in dopaminergic progenitor cells, TH expresses in dopaminergic neurons, and DAPI is a nuclear-specific dye). Then, the dopaminergic progenitor cells (green fluorescence), dopaminergic neurons (red fluorescence) and nuclei (blue fluorescence) were observed by an upright fluorescent microscope (purchased from Nikon Company).

[2] = system: dopaminergic progenitor cells; experiment: Influence of BP on differentiation of dopaminergic progenitor cells into dopaminergic neurons (cell morphology, inverted microscope); format: cell-based; details: FIG. 3
Protocol: as §1
To understand the influence of BP on the differentiation of dopaminergic progenitor cells into dopaminergic neurons, the differentiation process of the cells in control group provided by [Preparation Example C] was continuously taken from a JuLI™Br cell imaging analyzer (purchased from NanoEnTek company) (results are shown in FIG. 2), and the cell morphology in each group provided by [Preparation Example C] was taken from and recorded by an inverted microscope (purchased from Nikon company) when the cells were continuously cultured for six days (results are shown in FIG. 3).

CCCC=C1OC(=O)c2ccccc21 [BP, n-butylidenephthalide]
phenomenon of dopaminergic neurons migrating out from the neurospheres, comparison among BP concentrations ([1]; BP 50 µM ("BP (50)" group), ten days): most significant | phenomenon of dopaminergic neurons migrating out from the neurospheres, compared to control group ([1]; BP at 5, 10, 20, 50 and 100 µM in conditional medium, cultured ten days): can be observed | influence on the normal neural differentiation of dopaminergic progenitor cells ([2]; BP 5-100 µM, six days): does not influence | formation of nerve fibers ([2]; BP at 5, 10, 20, 50 and 100 µM in conditional medium (Purmorphamine + FGF-8b), cultured six days): can be observed
